Assay results from ChEMBL document CHEMBL6153174, “Design and Synthesis of Novel Deazapurine DNMT 1 Inhibitors with In Vivo Efficacy in DLBCL” (J Med Chem, 2025).

Legend:
[1] = biological target: T1, DNA (cytosine-5)-methyltransferase 3A (Homo sapiens, UniProt Q9Y6K1); assay: Inhibition of DNMT3A (unknown origin) at 5 uM preincubated for 15 mins followed by substrate and [3H-SAM] addition and measured after 60 mins by microbeta analysis relative to control; settings: time 75.0 min
U-937 = assay: Antiproliferative activity against human U-937 cells assessed as inhibition of cell viability measured after 72 hrs by MTT assay; assay type: functional, cell-based; settings: U-937, 72 h
MV4-11 = assay: Antiproliferative activity against human MV4-11 cells assessed as inhibition of cell viability measured after 72 hrs by MTT assay; assay type: functional, cell-based; settings: MV4-11, 72 h
[2] = biological target: T2, DNA (cytosine-5)-methyltransferase 3B (Homo sapiens, UniProt Q9UBC3); assay: Inhibition of DNMT3B (unknown origin) preincubated for 15 mins followed by substrate and [3H-SAM] addition and measured after 60 mins by microbeta analysis
[3] = biological target: T3, DNA (cytosine-5)-methyltransferase 1 (Homo sapiens, UniProt P26358); assay: Inhibition of DNMT1 (unknown origin) at 5 uM preincubated for 15 mins followed by substrate and [3H-SAM] addition and measured after 60 mins by microbeta analysis relative to control; settings: time 75.0 min
[4] = biological target: T4, Histone-lysine N-methyltransferase EHMT2 (Homo sapiens) (UniProt Q96KQ7); assay: Inhibition of G9a (unknown origin) at 5 uM preincubated for 15 mins followed by substrate and [3H-SAM] addition and measured after 60 mins by microbeta analysis relative to control; settings: time 75.0 min
T4 sequence (whole entry): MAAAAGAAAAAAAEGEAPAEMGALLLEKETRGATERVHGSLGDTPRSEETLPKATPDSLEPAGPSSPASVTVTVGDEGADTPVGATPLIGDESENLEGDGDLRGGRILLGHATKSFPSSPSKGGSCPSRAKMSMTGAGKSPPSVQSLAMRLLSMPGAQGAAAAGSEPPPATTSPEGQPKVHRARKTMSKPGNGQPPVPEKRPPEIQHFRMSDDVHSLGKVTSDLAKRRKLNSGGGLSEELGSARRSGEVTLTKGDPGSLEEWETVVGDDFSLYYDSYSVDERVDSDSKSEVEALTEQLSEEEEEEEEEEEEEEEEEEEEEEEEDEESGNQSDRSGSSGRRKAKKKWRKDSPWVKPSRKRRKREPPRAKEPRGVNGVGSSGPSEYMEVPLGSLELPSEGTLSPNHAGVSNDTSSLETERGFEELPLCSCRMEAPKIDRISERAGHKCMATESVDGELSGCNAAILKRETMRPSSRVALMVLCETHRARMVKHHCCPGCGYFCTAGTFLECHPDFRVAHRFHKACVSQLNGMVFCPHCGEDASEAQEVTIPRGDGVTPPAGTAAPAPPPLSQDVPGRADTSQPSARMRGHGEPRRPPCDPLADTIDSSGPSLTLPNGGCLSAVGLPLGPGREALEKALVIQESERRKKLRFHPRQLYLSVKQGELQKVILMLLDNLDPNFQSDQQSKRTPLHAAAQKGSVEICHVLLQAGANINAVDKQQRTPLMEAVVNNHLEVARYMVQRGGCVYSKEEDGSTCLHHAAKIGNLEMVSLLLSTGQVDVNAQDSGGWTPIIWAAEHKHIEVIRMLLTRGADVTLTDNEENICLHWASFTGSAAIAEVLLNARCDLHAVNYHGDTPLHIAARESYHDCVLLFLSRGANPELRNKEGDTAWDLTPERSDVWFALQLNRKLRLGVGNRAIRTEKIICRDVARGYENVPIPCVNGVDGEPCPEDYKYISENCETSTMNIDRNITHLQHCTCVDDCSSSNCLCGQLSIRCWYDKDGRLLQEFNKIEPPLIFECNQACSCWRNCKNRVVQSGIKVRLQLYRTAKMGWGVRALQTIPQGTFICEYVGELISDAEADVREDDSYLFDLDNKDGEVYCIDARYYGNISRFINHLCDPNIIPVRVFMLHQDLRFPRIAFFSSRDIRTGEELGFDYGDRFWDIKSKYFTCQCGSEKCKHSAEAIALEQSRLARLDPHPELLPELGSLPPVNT

[5] = biological target: T2, DNA (cytosine-5)-methyltransferase 3B; assay: Inhibition of DNMT3B (unknown origin) at 5 uM preincubated for 15 mins followed by substrate and [3H-SAM] addition and measured after 60 mins by microbeta analysis relative to control; settings: time 75.0 min
[6] = biological target: T1, DNA (cytosine-5)-methyltransferase 3A; assay: Inhibition of DNMT3A (unknown origin) preincubated for 15 mins followed by substrate and [3H-SAM] addition and measured after 60 mins by microbeta analysis
[7] = biological target: T3, DNA (cytosine-5)-methyltransferase 1; assay: Inhibition of DNMT1 (unknown origin) preincubated for 15 mins followed by substrate and [3H-SAM] addition and measured after 60 mins by microbeta analysis

T3 sequence (P26358 whole entry): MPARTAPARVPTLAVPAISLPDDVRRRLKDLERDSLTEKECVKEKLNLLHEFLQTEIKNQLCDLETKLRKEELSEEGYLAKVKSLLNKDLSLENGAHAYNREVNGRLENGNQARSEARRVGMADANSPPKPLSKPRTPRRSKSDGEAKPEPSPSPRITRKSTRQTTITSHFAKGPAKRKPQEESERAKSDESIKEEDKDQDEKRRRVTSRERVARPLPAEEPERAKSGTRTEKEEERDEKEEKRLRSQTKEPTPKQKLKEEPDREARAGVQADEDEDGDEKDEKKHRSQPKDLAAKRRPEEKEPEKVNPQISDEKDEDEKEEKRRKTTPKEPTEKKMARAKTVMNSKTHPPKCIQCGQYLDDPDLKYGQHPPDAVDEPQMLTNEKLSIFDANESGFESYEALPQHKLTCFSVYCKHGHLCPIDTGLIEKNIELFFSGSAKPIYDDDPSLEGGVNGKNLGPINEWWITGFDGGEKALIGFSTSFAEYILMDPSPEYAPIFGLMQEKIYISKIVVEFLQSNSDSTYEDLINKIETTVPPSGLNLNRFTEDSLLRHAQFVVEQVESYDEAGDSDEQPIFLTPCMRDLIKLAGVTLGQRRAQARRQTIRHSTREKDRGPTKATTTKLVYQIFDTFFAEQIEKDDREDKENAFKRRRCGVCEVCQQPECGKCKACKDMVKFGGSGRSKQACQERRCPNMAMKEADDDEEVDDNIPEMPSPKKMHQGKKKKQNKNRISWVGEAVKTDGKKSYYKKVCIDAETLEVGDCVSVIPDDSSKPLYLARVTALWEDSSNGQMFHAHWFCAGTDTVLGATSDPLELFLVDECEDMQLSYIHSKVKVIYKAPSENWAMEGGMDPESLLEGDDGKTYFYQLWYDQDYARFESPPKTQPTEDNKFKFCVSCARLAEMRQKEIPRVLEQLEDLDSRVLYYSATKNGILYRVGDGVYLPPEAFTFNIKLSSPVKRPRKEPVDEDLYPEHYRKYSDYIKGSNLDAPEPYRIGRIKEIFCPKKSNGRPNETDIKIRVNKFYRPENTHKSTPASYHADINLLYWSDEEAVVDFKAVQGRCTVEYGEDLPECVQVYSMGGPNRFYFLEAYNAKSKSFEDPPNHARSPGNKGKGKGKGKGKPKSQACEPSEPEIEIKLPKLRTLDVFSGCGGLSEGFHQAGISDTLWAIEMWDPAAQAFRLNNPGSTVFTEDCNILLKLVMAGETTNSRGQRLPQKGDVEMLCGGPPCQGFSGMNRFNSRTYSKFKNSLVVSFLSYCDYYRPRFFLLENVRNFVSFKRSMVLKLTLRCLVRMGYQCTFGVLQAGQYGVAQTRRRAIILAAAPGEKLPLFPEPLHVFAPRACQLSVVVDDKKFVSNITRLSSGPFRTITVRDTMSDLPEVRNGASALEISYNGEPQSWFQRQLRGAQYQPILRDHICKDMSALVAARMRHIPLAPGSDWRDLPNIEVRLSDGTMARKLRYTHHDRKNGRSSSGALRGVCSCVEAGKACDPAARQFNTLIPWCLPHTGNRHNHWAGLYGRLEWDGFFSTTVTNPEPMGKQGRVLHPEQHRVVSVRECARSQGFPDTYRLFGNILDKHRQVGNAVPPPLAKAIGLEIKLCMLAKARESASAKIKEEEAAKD
T1 sequence (Q9Y6K1 whole entry, looked up): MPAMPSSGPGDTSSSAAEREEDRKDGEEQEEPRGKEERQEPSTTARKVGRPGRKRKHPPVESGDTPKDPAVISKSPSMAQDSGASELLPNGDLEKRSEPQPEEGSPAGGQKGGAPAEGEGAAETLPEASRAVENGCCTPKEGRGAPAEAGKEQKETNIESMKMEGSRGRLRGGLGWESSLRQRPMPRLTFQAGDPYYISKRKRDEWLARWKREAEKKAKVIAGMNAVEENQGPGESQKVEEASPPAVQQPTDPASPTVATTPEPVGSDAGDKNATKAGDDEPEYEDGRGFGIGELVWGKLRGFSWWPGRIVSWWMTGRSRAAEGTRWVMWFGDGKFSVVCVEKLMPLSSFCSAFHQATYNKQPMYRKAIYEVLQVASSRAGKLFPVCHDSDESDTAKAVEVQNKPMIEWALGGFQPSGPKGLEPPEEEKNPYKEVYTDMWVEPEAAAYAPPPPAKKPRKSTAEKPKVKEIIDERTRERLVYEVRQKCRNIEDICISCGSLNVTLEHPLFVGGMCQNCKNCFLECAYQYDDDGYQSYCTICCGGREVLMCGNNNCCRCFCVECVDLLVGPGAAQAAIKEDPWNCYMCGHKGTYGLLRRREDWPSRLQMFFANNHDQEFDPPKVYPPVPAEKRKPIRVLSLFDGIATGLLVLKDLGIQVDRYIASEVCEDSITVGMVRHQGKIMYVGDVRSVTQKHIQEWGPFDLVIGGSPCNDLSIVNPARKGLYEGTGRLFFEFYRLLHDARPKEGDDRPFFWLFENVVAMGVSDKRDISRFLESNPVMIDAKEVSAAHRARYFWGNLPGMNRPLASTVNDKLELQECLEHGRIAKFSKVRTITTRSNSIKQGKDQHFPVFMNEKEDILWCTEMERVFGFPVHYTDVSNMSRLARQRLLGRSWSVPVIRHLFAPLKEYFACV

SMILES | inhibition [1] | IC50 (U-937) | IC50 (MV4-11) | IC50 [2] | inhibition [3] | inhibition [4] | inhibition [5] | IC50 [6] | IC50 [7]
CN1CCC(Nc2nc(-c3ccc(F)cc3)nc3c2ccn3CCCN2CCCC2)CC1 | 13% | 2.45 µM | 1.66 µM | 18.3 µM | 63% | 0.3% | -6.6% | 4 µM | –
Cc1ccc(-c2cc(NCC3CCN(Cc4ccccc4)CC3)c3cnn(CCCN4CCCC4)c3c2)o1 | 25% | 1.59 µM | 1 µM | – | 61% | 14% | – | – | –
CC(C)(C)OC(=O)N1CCC(CNc2cc(-c3ccc(F)cc3)cc3c2cnn3CCCN2CCCC2)CC1 | 6.8% | 1.07 µM | 1.21 µM | – | 32% | – | 9.1% | – | –
Cc1ccc(-c2cc(NCC3CCN(C(=O)OC(C)(C)C)CC3)c3cnn(CCCN4CCCC4)c3c2)o1 | 17% | 3.21 µM | 1.06 µM | – | 1.6% | 12% | 11% | – | –
CC(C)N1CCC(Nc2nc(-c3ccc(F)cc3)nc3c2ncn3CCCN2CCCC2)CC1 | 14% | 12.8 µM | 10.4 µM | – | 3.3% | -4.9% | 11% | – | 17.4 µM
CN1CCC(Nc2nc(N3CCCN(C)CC3)nc3c2ccn3CCCN2CCCC2)CC1 | – | 43.3 µM | 26 µM | – | 31% | 2.9% | – | 6.17 µM | –
CC(C)N1CCC(Nc2nc(N3CCCCC3)nc3c2ncn3CCCN2CCCC2)CC1 | 4.3% | > 100 µM | > 100 µM | – | 12% | 7.6% | 9.9% | – | –
CC(C)N1CCC(Nc2nc(N3CCN(C)CC3)nc3c2ccn3CCCN2CCCC2)CC1 | 6.6% | 15.6 µM | 2.87 µM | – | 20% | 3.6% | 4.3% | – | –
Cc1ccc(-c2nc(NC3CCN(C)CC3)c3ccn(CCCN4CCCC4)c3n2)o1 | 16.5% | 43.6 µM | 11.8 µM | 14.6 µM | 43% | 7.2% | -2.5% | 7.95 µM | –
CN1CCC(Nc2nc(N3CCN(C)CC3)nc3c2ccn3CCCN2CCOCC2)CC1 | 9.5% | 58.6 µM | 23.8 µM | – | 25% | 12% | 16% | – | –
CN1CCC(Nc2nc(-c3ccc(C(F)(F)F)cc3)nc3c2ccn3CCCN2CCCC2)CC1 | 9.7% | 0.98 µM | 1.16 µM | – | 42% | – | 1.1% | – | –
CN1CCC(Nc2nc(N3CCN(C)CC3)nc3c2ccn3CCCN2CCCC2)CC1 | 11% | 30.9 µM | 11.1 µM | – | 39% | -1.9% | 11% | 2.8 µM | –
CC(C)N1CCC(Nc2nc(N3CCCCC3)nc3c2ccn3CCCN2CCCC2)CC1 | 0.8% | 14.5 µM | 12.3 µM | – | 13% | 6.5% | 11% | – | –
CN1CCN(c2cc(NCC3CCN(C(=O)OC(C)(C)C)CC3)c3cnn(CCCN4CCOCC4)c3c2)CC1 | 19% | 23.9 µM | 22.1 µM | – | 98% | 10% | 31% | – | –
CN1CCC(Nc2nc(-c3ccc(F)nc3)nc3c2ccn3CCCN2CCOCC2)CC1 | 16% | 6.84 µM | 10.6 µM | – | 17% | 11% | 0.2% | – | –
CN1CCC(Nc2nc(N3CCCCC3)nc3c2ccn3CCCN2CCCC2)CC1 | 6.9% | 17.7 µM | 9.62 µM | – | 20% | 1.9% | -9.7% | – | –
CN1CCC(Nc2nc(N3CCCC3)nc3c2ccn3CCCN2CCCC2)CC1 | 4.2% | 46.3 µM | 11 µM | – | 25% | 1.3% | – | – | –
COc1ccc(-c2cc(NCC3CCN(Cc4ccccc4)CC3)c3cnn(CCCN4CCCC4)c3c2)cc1 | 24% | 1.02 µM | 1.44 µM | – | 48% | – | 1.2% | – | –
CC(C)N1CCC(Nc2nc(N3CCN(C)CC3)nc3c2ncn3CCCN2CCCC2)CC1 | -6.9% | 14.2 µM | 8.25 µM | – | 17% | – | – | – | –

Other lines, results leading:

inhibition [1] | IC50 (U-937) | IC50 (MV4-11) | IC50 [2] | inhibition [3] | inhibition [4] | inhibition [5] | IC50 [6] | IC50 [7] | SMILES
3.7% | 41 µM | 24 µM | – | 21% | 12% | -0.3% | – | – | CN1CCC(Nc2nc(N3CCCCC3)nc3c2ccn3CCCN2CCOCC2)CC1
12% | 6.95 µM | 1.07 µM | – | 0.36% | 9.7% | 53% | – | > 30 µM | Cc1ccc(-c2cc(NCC3CCN(C(=O)OCc4ccccc4)CC3)c3cnn(CCCN4CCCC4)c3c2)o1
8.6% | > 100 µM | > 100 µM | – | 49% | -2.4% | -5.5% | – | 55.4 µM | CC(C)N1CCC(Nc2nc(-c3cn[nH]c3)nc3c2ncn3CCCN2CCCC2)CC1
20% | 8.91 µM | 2.33 µM | – | 41% | 22% | – | – | – | Cc1ccc(-c2cc(NCC3CCNCC3)c3cnn(CCCN4CCCC4)c3c2)o1
7.2% | > 100 µM | > 100 µM | – | 35% | -2% | -6.9% | 7.13 µM | – | CN1CCC(Nc2nc(-c3cn[nH]c3)nc3c2ccn3CCCN2CCCC2)CC1
2.6% | > 100 µM | 40.9 µM | – | 6.7% | -1.4% | -9.7% | – | – | CC(C)N1CCC(Nc2nc(N3CCOCC3)nc3c2ccn3CCCN2CCCC2)CC1
8.6% | 18.2 µM | 6.68 µM | – | 45% | 1.1% | 6.6% | 7.36 µM | – | CN1CCC(Nc2nc(-c3ccccc3)nc3c2ccn3CCCN2CCCC2)CC1
22% | 55.2 µM | 46.1 µM | – | 37% | 2.5% | 2% | – | 23.8 µM | Cc1ccc(-c2nc(NC3CCN(C(C)C)CC3)c3ncn(CCCN4CCCC4)c3n2)o1
-1.8% | > 100 µM | 25.9 µM | – | 25% | 7.2% | 15% | – | – | CN1CCC(Nc2nc(N3CCOCC3)nc3c2ccn3CCCN2CCCC2)CC1
21% | 12.4 µM | 8.85 µM | – | 7.2% | 6% | 0.7% | – | 11.9 µM | CC(C)N1CCC(Nc2nc(-c3ccccc3)nc3c2ncn3CCCN2CCCC2)CC1
– | – | 8.67 µM | – | – | – | – | – | – | CN1CCN(c2cc(NCC3CCN(C(=O)C4CCCC4)CC3)c3cnn(CCCN4CCOCC4)c3c2)CC1
13% | 12.2 µM | 11.9 µM | – | 56% | 12% | -9.4% | – | – | Cc1ccc(-c2cc(NC3CCN(C(C)C)CC3)c3cnn(CCCN4CCCC4)c3c2)o1
